We go through 1 molecule from patent publication EP4599827A1, “DGL FOR THE INDUCTION OF ENDOTHELIAL-DERIVED NO-DEPENDENT VASODILATION” (Dr. Kurt Wolff GmbH & Co. KG, priority 2024, dated 2025).

What all share (format): cell-based, human
The test system of assay [1] is eNOS. Nature of the assay: Immunocytochemistry of eNOS expression in HDMECs. Particulars: semiquantitative immunocytochemistry, 24 h treatment, DMG-Na 0,005%, 0,02% and 0,05%. An excerpt: (§1) Adulte humane mikrovaskuläre Endothelzellen der Haut (HDMECs) wurden 2023 von Lonza Ltd (Basel, Schweiz) erworben und kultiviert in EBM™-2 Endothelial Cell Growth Basal Medium, ergänzt mit EGM™-2 MV Microvascular Endothelial SingleQuots™ Kit (beide von Lonza Ltd, Basel, Schweiz), enthaltend humanen epidermalen Wachstumsfaktor, vaskulären Endothelial Growth Factor, R^3-Insulin-like Growth Factor-1, Ascorbinsäure, Hydrocortison, humanen Fibroblasten-Wachstumsfaktor-Beta, fötales Rinderserum und Gentamicin/Amphotericin-B und gemäß den Richtlinien des Herstellers kultiviert. Die HDMECs wurden von 2 verschiedenen weiblichen Spendern initiiert und es wurden die Passagen 4 bis 8 wurden für die Experimente verwendet.
HDMECs (5.000 Zellen pro 10 mm runde Glasdeckgläser), die mit DMG-Na (0,005%, 0,02% und 0,05%) behandelt wurden, wurden in 1% Paraformaldehyd (PFA, Merck KGaA, Darmstadt) für 10 Minuten bei Raumtemperatur fixiert und nach einem Waschschritt mit phosphatgepufferter Kochsalzlösung (PBS, Merck KGaA) für 5 Minuten mit -20 °C kalter Ethanol-Essigsäure (2:1) nachfixiert. […]

The test system of assay [2] is eNOS. Nature of the assay: Western blot of eNOS protein content in HDMECs.
Description: as §1
HDMECs wurden in 6-Well-Platten ausgesät und für 24 Stunden mit DMG-Na (0,005% und 0,05%) behandelt. Nach der Behandlung wurden die Zellen in Lysispuffer (30 mM TRIS, pH 7,6, 140 mM NaCl, 5 mM EDTA, 50 mM NaF, 1 mM Na3VO4), der mit Proteaseinhibitoren ergänzt wurde, geerntet. Nach kräftigem Vortexen und Zentrifugieren wurde der Proteingehalt der Proben unter Verwendung des Pierce BCA Protein Assay Kits (Thermo Fisher Scientific, Waltham, MA) bestimmt. Gleiche Mengen an Proteinproben wurden einer 7,5%-igen SDS-PAGE unterzogen und auf Nitrocellulose-Membranen (Bio-Rad Laboratories, Hercules, CA) übertragen. […]
On the technique in general: Immunoblotting shows a protein as a band on a membrane.

Another assay relates to HDMECs. Nature of the assay: Microfluorimetric measurement of NO (DAF-FM DA) in HDMECs. Particulars: DAF-FM-DA microfluorimetry, increase vs control.
Description: as §1
HDMECs wurden mit einer Dichte von 15.000 Zellen pro Well in einer schwarzen 96-WellPlatte mit klarem Boden (Greiner Bio-One, Kremsmünster, Österreich) ausgesät und in Wachstumsmedium bei 37 °C für 24 Stunden kultiviert. Anschließend wurden die Zellen mit 5 µM DAF-FM DA (4-Amino-5-methylamin-2',7'-difluororesceindiacetat) in phenolrotfreiem DMEM (beides von Thermo Fisher Scientific, Waltham, MA), ergänzt mit 0,5% FBS (Serana Europe GmbH, Brandenburg, Deutschland) für 1 Stunde bei 37 °C inkubiert. […]

The structures appear in SMILES notation.

Take `CN(C)CC(=O)O` [DMG-Na, N,N-Dimethylglycin-Natriumsalz]: the “Expression von eNOS” value in the assay with eNOS [1] was “Expression von eNOS nach 24-stündiger Behandlung zu erhöhen”. The “Proteingehalt von eNOS” value in the assay on eNOS [2] (24 h, 0,05% DMG-Na, increase vs control, p=0,0189) is given as “statistisch signifikant”; with eNOS [2] (24 h, DMG-Na 0,005% and 0,05%, vs control), “dosisabhängig”. The “zelluläre NO-Produktion” value was “statistisch signifikant” in the assay with HDMECs (0.02%, p=0,0002) and “statistisch signifikant” in the assay on HDMECs (0.05%, p=0,0001).
